In patent US8802597B2, “Herbicidal pyrimidines” (E I du Pont de Nemours and Company, priority 2003, dated 2014):
Read-outs that look alike come from different tables or passages of the source.

Assays:
Assay type in all cases: in vivo
[1] = test system: chickweed (Stellaria media); test: Test C postemergence; conditions: Stellaria media, post-emergence
Method in brief: (§1)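 Greenhouse herbicide screen, visual readout. Compound in solvent/surfactant applied preemergence at planting or postemergence to 1- to 4-leaf plants; assessed at 12–14 days on a 0–100 control scale.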

[2] = test system: woolly cupgrass (Eriochloa villosa); test: Test C pre/postemergence; conditions: Eriochloa villosa; for pest or weed control at 31 g/ha: 31 g ai/ha; for pest or weed control at 62 g/ha: 62 g ai/ha; for pest or weed control at 125 g/ha: 125 g ai/ha
Method in brief: as §1

[3] = test system: bermudagrass (Cynodon dactylon); test: Test C pre/postemergence; conditions: Cynodon dactylon; for pest or weed control at 31 g/ha: 31 g ai/ha; for pest or weed control at 62 g/ha: 62 g ai/ha; for pest or weed control at 125 g/ha: 125 g ai/ha; for pest or weed control at 250 g/ha: 250 g ai/ha
Method in brief: as §1

[4] = test system: pigweed (Amaranthus retroflexus); test: Test C pre/postemergence; conditions: Amaranthus retroflexus; for pest or weed control at 31 g/ha: 31 g ai/ha; for pest or weed control at 62 g/ha: 62 g ai/ha; for pest or weed control at 125 g/ha: 125 g ai/ha; for pest or weed control at 250 g/ha: 250 g ai/ha
Method in brief: as §1

[5] = test system: yellow nutsedge (Cyperus esculentus); test: Test C pre/postemergence; conditions: Cyperus; for pest or weed control at 31 g/ha: 31 g ai/ha; for pest or weed control at 62 g/ha: 62 g ai/ha; for pest or weed control at 125 g/ha: 125 g ai/ha; for pest or weed control at 250 g/ha: 250 g ai/ha
Method in brief: as §1

[6] = test system: velvetleaf (Abutilon theophrasti); test: Test C pre/postemergence; conditions: Abutilon theophrasti; for pest or weed control at 31 g/ha: 31 g ai/ha; for pest or weed control at 62 g/ha: 62 g ai/ha; for pest or weed control at 125 g/ha: 125 g ai/ha; for pest or weed control at 250 g/ha: 250 g ai/ha
Method in brief: as §1

[7] = test system: goosegrass (Eleusine indica); test: Test C pre/postemergence; conditions: Eleusine indica; for pest or weed control at 31 g/ha: 31 g ai/ha; for pest or weed control at 62 g/ha: 62 g ai/ha; for pest or weed control at 125 g/ha: 125 g ai/ha; for pest or weed control at 250 g/ha: 250 g ai/ha
Method in brief: as §1

[8] = test system: common ragweed (Ambrosia elatior); test: Test C pre/postemergence; conditions: Ambrosia artemisiifolia; for pest or weed control at 31 g/ha: 31 g ai/ha; for pest or weed control at 62 g/ha: 62 g ai/ha; for pest or weed control at 125 g/ha: 125 g ai/ha; for pest or weed control at 250 g/ha: 250 g ai/ha
Method in brief: as §1

[9] = test system: barnyardgrass (Echinochloa crus-galli); test: Test A pre/postemergence; conditions: Echinochloa crus-galli, 240 h, read-out: Plant response rating, Barnyardgrass; for pest or weed control at 125 g/ha: 125 g ai/ha; for pest or weed control at 500 g/ha: 500 g ai/ha
Method in brief: (§2)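 Visual injury scored 0–100 (0 = no effect, 100 = complete control) against untreated controls after about ten days in the greenhouse. Compounds, formulated in non-phytotoxic solvent plus surfactant, were applied preemergence as a directed soil spray and postemergence at the 1- to 2-leaf stage (2–10 cm).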

[10] = test system: crabgrass (Digitaria sanguinalis); test: Test A pre/postemergence; conditions: Digitaria sanguinalis, 240 h, read-out: Plant response rating, Crabgrass; for pest or weed control at 125 g/ha: 125 g ai/ha; for pest or weed control at 500 g/ha: 500 g ai/ha
Method in brief: as §2

[11] = post-emergence, Postemergence, scale 0 to 100 (0 no effect, 100 complete control), read-out: Cupgrass, Woolly plant response rating
[12] = pre-emergence, Preemergence, scale 0 to 100, 0 no effect, 100 complete control, read-out: Plant response rating, Cupgrass, Woolly
[13] = post-emergence, Postemergence, scale 0 to 100 (0 no effect, 100 complete control), read-out: Bermudagrass plant response rating
[14] = pre-emergence, Preemergence, scale 0 to 100, 0 no effect, 100 complete control, read-out: Plant response rating, Bermudagrass
[15] = pre-emergence, Preemergence, scale 0 to 100, read-out: Plant response rating, Bermudagrass
[16] = post-emergence, Postemergence, scale 0 to 100 (0 no effect, 100 complete control), read-out: Pigweed plant response rating
[17] = pre-emergence, Preemergence, scale 0 to 100, 0 no effect, 100 complete control, read-out: Plant response rating, Pigweed
[18] = pre-emergence, Preemergence, scale 0 to 100, read-out: Plant response rating, Pigweed
[19] = post-emergence, Postemergence, scale 0 to 100 (0 no effect, 100 complete control), read-out: Nutsedge, Yellow plant response rating
[20] = pre-emergence, Preemergence, scale 0 to 100, 0 no effect, 100 complete control, read-out: Plant response rating, Nutsedge, Yellow
[21] = pre-emergence, Preemergence, scale 0 to 100, read-out: Plant response rating, Nutsedge, Yellow
[22] = post-emergence, Postemergence, scale 0 to 100 (0 no effect, 100 complete control), read-out: Velvetleaf plant response rating
[23] = pre-emergence, Preemergence, scale 0 to 100, 0 no effect, 100 complete control, read-out: Plant response rating, Velvetleaf
[24] = pre-emergence, Preemergence, scale 0 to 100, read-out: Plant response rating, Velvetleaf
[25] = post-emergence, Postemergence, scale 0 to 100 (0 no effect, 100 complete control), read-out: Goosegrass plant response rating
[26] = pre-emergence, Preemergence, scale 0 to 100, 0 no effect, 100 complete control, read-out: Plant response rating, Goosegrass
[27] = pre-emergence, Preemergence, scale 0 to 100, read-out: Plant response rating, Goosegrass
[28] = post-emergence, Postemergence, scale 0 to 100 (0 no effect, 100 complete control), read-out: Ragweed plant response rating
[29] = pre-emergence, Preemergence, scale 0 to 100, 0 no effect, 100 complete control, read-out: Plant response rating, Ragweed
[30] = pre-emergence, Preemergence, scale 0 to 100, read-out: Plant response rating, Ragweed
[31] = post-emergence, Postemergence, 0 to 100 scale (0 no effect, 100 complete control)
[32] = pre-emergence, Preemergence, 0 to 100 scale where 0 is no effect and 100 is complete control, approximately ten days

CCOC(=O)c1nc(-c2ccc(Cl)cc2)nc(N)c1Cl [Compound 64, ethyl 6-amino-5-chloro-2-(4-chlorophenyl)-4-pyrimidinecarboxylate]
30%: pest or weed control at 31 g/ha ([2]; post-emergence, Postemergence, read-out: Plant response rating (scale of 0 to 100), Cupgrass, Woolly) | pest or weed control at 62 g/ha [4, 17]
55%: pest or weed control at 250 g/ha ([1]; 250 g ai/ha, scale 0 to 100, read-out: Plant response rating, Chickweed)
100%: pest or weed control at 125 g/ha [4, 16] | pest or weed control at 250 g/ha ([4]; post-emergence, Postemergence, scale 0 to 100, read-out: Plant response rating, Pigweed) | pest or weed control at 125 g/ha [4, 18] | pest or weed control at 250 g/ha [4, 18] | pest or weed control at 250 g/ha [8, 30]
0%: pest or weed control at 31 g/ha ([1]; 31 g ai/ha, read-out: Plant response rating (scale of 0 to 100), Chickweed) | pest or weed control at 62 g/ha ([1]; 62 g ai/ha, scale 0 to 100 (0 no effect, 100 complete control), read-out: Chickweed plant response rating) | pest or weed control at 125 g/ha ([1]; 125 g ai/ha, scale 0 to 100 (0 no effect, 100 complete control), read-out: Chickweed plant response rating) | pest or weed control at 31 g/ha [2, 12] | pest or weed control at 62 g/ha [2, 12] | pest or weed control at 125 g/ha ([2]; pre-emergence, Preemergence, scale 0 to 100, read-out: Plant response rating, Cupgrass, Woolly) | pest or weed control at 31 g/ha [3, 14] | pest or weed control at 62 g/ha [3, 14] | pest or weed control at 31 g/ha [5, 20] | pest or weed control at 62 g/ha [5, 20] | pest or weed control at 125 g/ha [5, 21] | pest or weed control at 31 g/ha [6, 23] | pest or weed control at 62 g/ha [6, 23] | pest or weed control at 125 g/ha [6, 24] | pest or weed control at 250 g/ha [6, 24] | pest or weed control at 31 g/ha [7, 26] | pest or weed control at 62 g/ha [7, 26] | pest or weed control at 125 g/ha [7, 27] | pest or weed control at 125 g/ha [9, 32]
95%: pest or weed control at 62 g/ha [4, 16] | pest or weed control at 250 g/ha ([6]; post-emergence, Postemergence, scale 0 to 100, read-out: Plant response rating, Velvetleaf) | pest or weed control at 125 g/ha [8, 30]
75%: pest or weed control at 250 g/ha [7, 27] | pest or weed control at 31 g/ha ([8]; post-emergence, Postemergence, read-out: Plant response rating (scale of 0 to 100), Ragweed)
25%: pest or weed control at 125 g/ha [9, 31] | pest or weed control at 125 g/ha [10, 32]
50%: pest or weed control at 62 g/ha [5, 19] | pest or weed control at 125 g/ha [5, 19] | pest or weed control at 250 g/ha ([5]; post-emergence, Postemergence, scale 0 to 100, read-out: Plant response rating, Nutsedge, Yellow) | pest or weed control at 125 g/ha [10, 31]
85%: pest or weed control at 31 g/ha ([4]; post-emergence, Postemergence, read-out: Plant response rating (scale of 0 to 100), Pigweed) | pest or weed control at 62 g/ha [6, 22] | pest or weed control at 125 g/ha [8, 28] | pest or weed control at 31 g/ha [8, 29] | pest or weed control at 62 g/ha [8, 29]
60%: pest or weed control at 62 g/ha [3, 13] | pest or weed control at 125 g/ha [7, 25] | pest or weed control at 500 g/ha [9, 32]
70%: pest or weed control at 250 g/ha ([3]; post-emergence, Postemergence, scale 0 to 100, read-out: Plant response rating, Bermudagrass) | pest or weed control at 250 g/ha ([7]; post-emergence, Postemergence, scale 0 to 100, read-out: Plant response rating, Goosegrass) | pest or weed control at 500 g/ha [9, 31] | pest or weed control at 500 g/ha [10, 31]
80%: pest or weed control at 31 g/ha ([6]; post-emergence, Postemergence, read-out: Plant response rating (scale of 0 to 100), Velvetleaf) | pest or weed control at 62 g/ha [8, 28]
40%: pest or weed control at 62 g/ha [2, 11] | pest or weed control at 250 g/ha ([2]; pre-emergence, Preemergence, 250 g ai/ha, scale 0 to 100, read-out: Plant response rating, Cupgrass, Woolly) | pest or weed control at 31 g/ha ([5]; post-emergence, Postemergence, read-out: Plant response rating (scale of 0 to 100), Nutsedge, Yellow)
90%: pest or weed control at 125 g/ha [6, 22] | pest or weed control at 250 g/ha ([8]; post-emergence, Postemergence, scale 0 to 100, read-out: Plant response rating, Ragweed) | pest or weed control at 500 g/ha [10, 32]
65%: pest or weed control at 125 g/ha [2, 11] | pest or weed control at 125 g/ha [3, 13]
35%: pest or weed control at 31 g/ha ([7]; post-emergence, Postemergence, read-out: Plant response rating (scale of 0 to 100), Goosegrass) | pest or weed control at 62 g/ha [7, 25]
20%: pest or weed control at 31 g/ha ([3]; post-emergence, Postemergence, read-out: Plant response rating (scale of 0 to 100), Bermudagrass) | pest or weed control at 125 g/ha [3, 15] | pest or weed control at 250 g/ha [3, 15]
10%: pest or weed control at 31 g/ha [4, 17] | pest or weed control at 250 g/ha [5, 21]
